The source of these data is EPA's ToxValDB 9.5 (doi:10.2903/j.efsa.2017.4988).

In brackets after ≈: the same amount, converted by molar mass. Bounds are passed on as bounds.

In series [1] the test system is Rattus norvegicus. The conditions noted are these: for LD50: acute, mortality.
Series [2] relates to Aphidius rhopalosiphi. Kind of series: LR50; higher = less toxic. The conditions noted are these: not reported; mortality.
Series [3] concerns Gammaridae. The conditions noted are these: chronic/long-term; duration: 28 days.
In series [4] the test system is Tagia sp.
Series [5] relates to Daphnia magna. The conditions noted are these: chronic/long-term; duration: 21 days.
In series [6] the test system is Apis mellifera. The conditions noted are these: acute, mortality.
Series [7] deals with Canidae. The conditions noted are these: oral, Dog Other.
Series [8] concerns Oncorhynchus mykiss. The conditions noted are these: chronic/long-term; duration: 89 days; mortality.
Series [9] has as its system Cyprinodon variegatus. The conditions noted are these: acute; duration: 96 hours; mortality.
The test system of series [10] is Anas platyrhynchos. The conditions noted are these: acute; oral; unspecified; mortality.
Series [11] concerns Colinus virginianus.
Series [12] deals with Anomia sp. The conditions noted are these: acute; duration: 96 hours; mortality.
In series [13] the test system is Hypoaspis aculeifer. The conditions noted are these: chronic/long-term; duration: 14 days; reproduction.

One may read the NOAEL as the highest tested level that showed no adverse finding.

`CCOc1cc(C(C)(C)C)ccc1C(N)COC(=O)c1c(F)cccc1F` (stereo not given): the LD50 in series [1] is over 5000 mg/kg.

For `CCOc1cc(C(C)(C)C)ccc1C1COC(c2c(F)cccc2F)=N1` (stereo not given) [Etoxazole], the LR50 in series [2] was over 55 g/ha. Also, the LD50 in [1] (oral) is over 5000 mg/kg; in series [6] (dermal), over 200 µg/piece; in series [6] (oral, unspecified) it was over 200 µg/piece; in [10], over 2000 mg/kg. The NOAEL came to 4 mg/kg-day in series [1] (chronic, duration: 2 years); 24.5 mg/kg-day in [1] (reproduction developmental, organ weight); 5 mg/kg-day in [7] (chronic, duration: 1 years); 5 mg/kg-day in [7] (subchronic, duration: 90 days). For the same molecule, the NOEC was 0.86 mg/kg in [3]; 5 mg/kg in [4] (chronic/long-term, duration: 56 days, reproduction); 0.00013 mg/L in series [5]; 0.015 mg/L in series [8]; 28.6 mg/kg-day in [11] (chronic); 0.2 mg/kg in series [13]. Moreover, the LC50 was over 1000 mg/kg in series [4] (acute, duration: 14 days, mortality); over 160 ng/mL in [9]; 1270 mg/kg-day in [11] (acute, oral, diet, mortality); 4.3 ng/mL (≈ 0.012 µM) in series [12].
